In ChEMBL document CHEMBL1201862, “PubChem BioAssay data set” (2004):
The source made the active and inactive calls.

What was measured:
[1] = growth inhibition of yeast DHODH-expressing 3D7 parasites – SYBR Green, dry powder samples, dose response (AID 1159570); format: functional, cell-based;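 further: parasite growth measured after 72 hours of compound exposure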
[2] = growth inhibition of PfATP4-mutant resistant parasites – NITD609-resistant line, SYBR Green, dry powder, dose response (AID 1159571); format: functional, cell-based;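 further: parasites synchronized at ring stage by sorbitol before testing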
[3] = P. falciparum Dd2 growth inhibitors, dose response, SYBR Green, cherry-picked samples (AID 1159567); format: functional, cell-based
[4] = Dd2 malaria parasite growth inhibition potency – SYBR Green, dry powder samples, dose response (AID 1159566); format: functional, cell-based;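 further: potency for growth inhibition with lower SYBR green DNA signal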
[5] = toxicity to human hepatoma HepG2 cells – cell-based, cherry-picked samples, cytotoxicity control, dose response (AID 1159577); format: functional
[6] = blockers of CRF-binding protein–CRF-R2 complex – cell-based, uHTS hits, 384-well, dose response (AID 651639); format: functional, Homo sapiens; conditions: read-out: IC50_Mean
[7] = biological target: T1, Corticotropin-releasing factor receptor 2/Corticotropin-releasing factor-binding protein (Homo sapiens, UniProt P24387+Q13324); experiment: activators of CRF receptor 2 with binding protein – uHTS hits, confirmation (AID 602473); format: functional; conditions: read-out: EC50_Mean
T1 sequence (Q13324 whole entry): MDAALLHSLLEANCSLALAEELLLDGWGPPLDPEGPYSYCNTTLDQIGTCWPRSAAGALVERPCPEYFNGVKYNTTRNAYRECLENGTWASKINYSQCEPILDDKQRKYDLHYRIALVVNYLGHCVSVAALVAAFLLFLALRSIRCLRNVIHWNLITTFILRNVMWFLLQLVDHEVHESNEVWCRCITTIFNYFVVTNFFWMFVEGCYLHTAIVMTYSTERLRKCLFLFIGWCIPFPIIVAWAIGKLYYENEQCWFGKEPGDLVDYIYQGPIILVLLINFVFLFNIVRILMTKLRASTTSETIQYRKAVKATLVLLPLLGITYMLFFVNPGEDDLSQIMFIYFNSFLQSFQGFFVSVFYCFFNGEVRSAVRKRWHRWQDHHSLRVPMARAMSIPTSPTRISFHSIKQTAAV
T1 sequence (P24387 whole entry): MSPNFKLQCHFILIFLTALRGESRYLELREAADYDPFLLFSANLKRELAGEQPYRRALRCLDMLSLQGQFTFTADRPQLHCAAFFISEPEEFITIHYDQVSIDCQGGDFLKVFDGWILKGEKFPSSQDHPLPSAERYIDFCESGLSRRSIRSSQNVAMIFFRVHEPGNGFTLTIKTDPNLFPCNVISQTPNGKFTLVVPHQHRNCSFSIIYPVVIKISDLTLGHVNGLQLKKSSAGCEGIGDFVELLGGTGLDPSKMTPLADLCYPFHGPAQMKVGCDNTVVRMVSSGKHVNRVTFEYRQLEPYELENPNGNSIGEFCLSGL

[8] = biological target: T1, Corticotropin-releasing factor receptor 2/Corticotropin-releasing factor-binding protein; experiment: Dose Response confirmation of uHTS hits for small molecule antagonists of the CRF-binding protein and CRF-R2 receptor complex.; format: functional; conditions: read-out: IC50_Mean
[9] = biological target: T2, High affinity choline transporter 1 (Homo sapiens, UniProt Q9GZV3); experiment: human choline transporter blockers, potency – cell-based, 5-point CRC, membrane potential dye, dose response (AID 504840); format: functional
T2 sequence (Q9GZV3 whole entry): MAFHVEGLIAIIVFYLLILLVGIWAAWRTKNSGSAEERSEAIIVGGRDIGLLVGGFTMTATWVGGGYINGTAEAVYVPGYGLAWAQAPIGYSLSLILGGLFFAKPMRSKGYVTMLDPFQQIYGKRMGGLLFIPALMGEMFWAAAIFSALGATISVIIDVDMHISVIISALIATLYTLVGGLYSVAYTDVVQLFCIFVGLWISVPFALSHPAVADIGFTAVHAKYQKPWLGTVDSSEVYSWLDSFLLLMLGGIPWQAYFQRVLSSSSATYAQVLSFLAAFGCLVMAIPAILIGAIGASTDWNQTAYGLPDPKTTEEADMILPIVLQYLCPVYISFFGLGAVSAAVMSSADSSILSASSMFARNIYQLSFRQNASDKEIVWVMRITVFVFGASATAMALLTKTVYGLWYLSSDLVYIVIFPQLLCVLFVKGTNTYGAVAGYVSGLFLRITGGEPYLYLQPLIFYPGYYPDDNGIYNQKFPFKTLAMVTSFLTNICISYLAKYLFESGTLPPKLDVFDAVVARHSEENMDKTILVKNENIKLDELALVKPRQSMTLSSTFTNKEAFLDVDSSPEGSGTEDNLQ

[10] = viability loss in HeLa cells – cytotoxicity control for MgcRacGAP inhibitor project, dose response (AID 624300); format: functional
[11] = biological target: T3, Rac GTPase-activating protein 1 (Homo sapiens, UniProt Q9H0H5); experiment: blockers of MgcRacGAP-driven Rac1 GTP hydrolysis – biochemical, ADP Hunter fluorescence, primary and confirmatory, confirmation (AID 624330); format: functional
T3 sequence (Q9H0H5 whole entry): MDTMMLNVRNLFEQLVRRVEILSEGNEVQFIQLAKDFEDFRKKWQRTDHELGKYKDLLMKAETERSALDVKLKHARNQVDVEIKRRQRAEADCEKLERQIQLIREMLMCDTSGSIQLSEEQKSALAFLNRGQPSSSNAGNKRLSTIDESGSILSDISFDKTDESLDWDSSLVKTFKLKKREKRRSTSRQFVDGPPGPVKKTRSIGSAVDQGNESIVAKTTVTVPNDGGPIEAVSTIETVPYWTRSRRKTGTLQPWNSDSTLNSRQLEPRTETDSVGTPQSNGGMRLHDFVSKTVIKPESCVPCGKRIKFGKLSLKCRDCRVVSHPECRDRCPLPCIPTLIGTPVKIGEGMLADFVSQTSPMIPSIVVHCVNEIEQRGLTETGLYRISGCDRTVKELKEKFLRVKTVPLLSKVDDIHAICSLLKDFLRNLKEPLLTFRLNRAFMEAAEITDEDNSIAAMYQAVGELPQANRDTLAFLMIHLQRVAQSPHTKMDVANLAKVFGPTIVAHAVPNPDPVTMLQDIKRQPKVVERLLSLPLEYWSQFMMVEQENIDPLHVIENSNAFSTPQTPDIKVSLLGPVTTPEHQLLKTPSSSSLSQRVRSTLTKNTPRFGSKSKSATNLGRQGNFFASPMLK

[12] = test system: Vero; experiment: cells; format: functional, cell-based; conditions: Chlorocebus sabaeus
[13] = test system: Vero; experiment: cells; format: functional; conditions: Chlorocebus sabaeus
[14] = biological target: Paired box protein Pax-8 (Homo sapiens, UniProt Q06710); experiment: PAX8 transcriptional activity inhibition in RMG-I – RMG-I cells, luciferase, cherry-pick, dose response (AID 687027); format: functional, cell-based;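 further: luciferase reporter driven by Pax8 target thyroperoxidase promoter measured by SteadyGlo luminescence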
Paired box protein Pax-8, sequence (Q06710 whole entry): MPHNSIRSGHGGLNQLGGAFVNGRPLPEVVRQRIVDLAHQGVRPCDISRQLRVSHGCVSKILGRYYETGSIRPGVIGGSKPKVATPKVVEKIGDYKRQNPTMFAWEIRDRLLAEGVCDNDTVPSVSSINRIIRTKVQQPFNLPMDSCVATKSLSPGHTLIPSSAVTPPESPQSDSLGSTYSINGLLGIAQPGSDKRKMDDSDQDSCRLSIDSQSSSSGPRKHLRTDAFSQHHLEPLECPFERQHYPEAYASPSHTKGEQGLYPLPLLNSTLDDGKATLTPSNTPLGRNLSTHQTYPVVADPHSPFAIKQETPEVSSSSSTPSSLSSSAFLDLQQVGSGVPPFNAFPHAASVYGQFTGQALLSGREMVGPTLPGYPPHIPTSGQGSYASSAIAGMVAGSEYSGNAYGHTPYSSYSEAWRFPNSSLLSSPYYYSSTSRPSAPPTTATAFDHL

[15] = biological target: Genome polyprotein (dengue virus type 2, UniProt P29990); experiment: flavivirus cap methylation enzyme inhibition – biochemical, confirmation dose response, primary screen (AID 588689); format: functional
Genome polyprotein, sequence (P29990 2492-3391 limits assumed): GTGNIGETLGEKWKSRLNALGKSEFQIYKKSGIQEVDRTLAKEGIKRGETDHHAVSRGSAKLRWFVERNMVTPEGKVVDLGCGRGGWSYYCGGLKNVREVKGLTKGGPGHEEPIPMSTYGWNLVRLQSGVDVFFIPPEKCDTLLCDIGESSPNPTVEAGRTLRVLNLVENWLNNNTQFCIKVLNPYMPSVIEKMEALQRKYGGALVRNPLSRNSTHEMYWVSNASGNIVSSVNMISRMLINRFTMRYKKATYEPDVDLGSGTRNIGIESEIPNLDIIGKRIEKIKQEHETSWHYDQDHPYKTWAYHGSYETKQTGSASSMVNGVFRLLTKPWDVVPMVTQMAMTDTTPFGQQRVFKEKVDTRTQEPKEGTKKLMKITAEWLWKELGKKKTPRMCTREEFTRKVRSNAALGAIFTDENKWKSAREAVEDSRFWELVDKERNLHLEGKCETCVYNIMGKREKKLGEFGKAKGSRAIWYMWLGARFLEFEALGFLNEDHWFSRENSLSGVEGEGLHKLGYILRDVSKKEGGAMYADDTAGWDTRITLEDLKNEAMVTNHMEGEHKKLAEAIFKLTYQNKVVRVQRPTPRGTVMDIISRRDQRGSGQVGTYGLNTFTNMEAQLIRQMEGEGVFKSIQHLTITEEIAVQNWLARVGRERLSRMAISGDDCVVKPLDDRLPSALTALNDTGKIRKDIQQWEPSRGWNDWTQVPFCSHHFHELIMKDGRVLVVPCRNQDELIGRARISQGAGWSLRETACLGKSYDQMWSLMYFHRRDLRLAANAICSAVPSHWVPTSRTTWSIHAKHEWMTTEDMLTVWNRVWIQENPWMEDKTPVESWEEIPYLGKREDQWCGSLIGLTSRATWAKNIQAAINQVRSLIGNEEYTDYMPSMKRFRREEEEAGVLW

## OC[C@@H]1Nc2ccc(C#Cc3ccccc3)cc2[C@@H]2[C@H]1CCN2Cc1nccs1
[1]
  AC50: 3.71 µM (active)
[2]
  AC50: 3.32 µM (active)
[3]
  AC50: 2.95 µM (active)
[4]
  AC50: 3.5 µM (active)
[5]
  AC50: > 39 µM (inactive)

## OC[C@H]1[C@@H](c2ccc(/C=C/c3ccccc3)cc2)[C@@H]2CN(Cc3cncnc3)CCCCN12
[3]
  AC50: 4.13 µM (active)
[5]
  AC50: 20.3 µM (active)

## CCCN1C(=O)c2ccccc2NC1c1ccc(OC)c(CSc2ccccn2)c1 (stereo not drawn)
[6]
  IC50: > 20 µM (inactive)
[7]
  EC50: > 53 µM (inactive)
[8]
  IC50: 46.2 µM (active)

## Cc1ccccc1C(=O)c1cccn1CC(=O)NC(C)c1ccccc1 (stereo not drawn)
[9]
  IC50: 12.6 µM (active)

## N#C/C(=N\Nc1ccccc1Cl)C(=O)c1ccccc1
[6]
  IC50: > 20 µM (inactive)
[7]
  EC50: > 53 µM (inactive)
[8]
  IC50: 10.2 µM (active)

## COc1cccc2c1C(=O)c1c(O)c3c(c(O)c1C2=O)C[C@@](O)(C(=O)CO)C[C@@H]3OC1CC(N)C(O)C(C)O1 (stereo partly drawn)
[10]
  CC50: 23.5 µM (active)
[11]
  IC50: 53.5 µM (active)
[12]
  IC50: > 25 µM (active)

## Clc1ccc(-c2cc(C3CCNCC3)[nH]n2)c(Cl)c1
[13]
  CC50: > 25 µM (active)
[12]
  IC50: 24.8 µM (active)

## Cc1ccc(-c2csc(Nc3ccc(C(=O)O)cc3)[n+]2Cc2ccccc2)cc1
[6]
  IC50: 16.5 µM (active)
[7]
  EC50: > 53 µM (inactive)
[8]
  IC50: 13 µM (active)

## CC(=O)O[C@H]1C[C@H](O[C@H]2[C@@H](O)C[C@H](O[C@H]3[C@@H](O)C[C@H](O[C@H]4CC[C@@]5(C)[C@H](CC[C@@H]6[C@@H]5CC[C@]5(O)[C@@H](C7=CC(=O)OC7)CC[C@]65O)C4)O[C@@H]3C)O[C@@H]2C)O[C@H](C)[C@H]1O[C@@H]1O[C@H](CO)[C@@H](O)[C@H](O)[C@H]1O
[14]
  AC50: 1.98 µM (active)
[13]
  CC50: 1.78 µM (active)
[12]
  IC50: < 0.05 µM (active)

## COc1cccc(/C=C2\SC(=S)N(NS(=O)(=O)c3ccccc3)C2=O)c1OC
[9]
  IC50: 0.692 µM (active)
[15]
  IC50: 41.1 µM (active)
[7]
  EC50: > 53 µM (inactive)
[8]
  IC50: 22.3 µM (active)

## COc1ccc(C#Cc2ccc3c(c2)O[C@@H](CN(C)S(=O)(=O)c2ccccc2F)[C@@H](C)CN([C@H](C)CO)S3(=O)=O)cc1
[1]
  AC50: 1.43 µM (active)
[2]
  AC50: 1.16 µM (active)
[3]
  AC50: 1.23 µM (active)
[4]
  AC50: 1.07 µM (active)
